Like-named read-outs stand apart in the source and are kept apart here.
Legend:
HUVEC = HUVEC cell migration assay (Boyden chamber); format: cell-based; settings: Homo sapiens, 5 hours incubation, read-out: IC50 Concentration, Migration
Description: Migration is assessed using the 48-well Boyden chamber and 8 μm pore size collagen-coated (10 μg/ml rat tail collagen; Collaborative Laboratories) polycarbonate filters (Osmonics, Inc.). The bottom chamber wells receive 27-29 μl of Dulbecco's Modified Eagle Medium (“DMEM”) alone (baseline) or medium containing chemo-attractant (bFGF, VEGF or […] cell conditioned medium). The top chambers receive 45 μl of a HUVEC cell suspension (1×10^6 cells/ml) prepared in DMEM+1% Bovine Serum Albumin (“BSA”) with or without test compound. After 5 hours incubation at 37° C. the membrane is rinsed in Phosphate Buffer Saline (“PBS”), fixed and stained in Diff-Quick solutions. The filter is placed on a glass slide with the migrated cells facing down and cells on top are removed using a Kimwipe. The testing is performed in 4-6 replicates and five fields are counted from each well. Negative unstimulated control values are subtracted from stimulated control and drug treated values and data is plotted as mean migrated cell±Standard Deviation.

HUVEC cells = assay: Induction of apoptosis, DNA fragmentation analysis, HUVEC; format: cell-based, human; settings: 16 hours treatment
Description: T84, CaCo-2 and HUVEC cells, respectively, were grown in 100 mm dishes for 7-9 days, culture media for HUVEC was EGM-2 (Clonetics, BioWhitaker Co.), until they reached semi-confluency. Cell monolayers were then treated for 12 hours (CaCo-2 and T84) and 16 hours (HUVEC), respectively, at the indicated concentrations of N,N,-diethyl-8,8-dipropyl-2-azaspiro[4,5]decane-2-propanamine dimaleate (Compound 1) in culture media. Cells were collected by trypsinization and the apoptotic DNA was isolated from these cells following the instructions of the DNA fragmentation analysis kit (Boehringer Mannheim Corp., Indianapolis, Ind.). The apoptotic DNA was evaluated using 1.5% agarose gel electrophoresis followed by staining with ethidium bromide. M denotes the lane containing molecular weight markers of DNA.

CaCo-2 cells = assay: Inhibition of CaCo-2 colon carcinoma cell proliferation (WST-1, Example 1); format: cell-based; settings: Homo sapiens, 24 hours incubation
Description: The effect of N,N,-diethyl-8,8-dipropyl-2-azaspiro[4,5]decane-2-propanamine dimaleate (Compound 1) on proliferation of human colon carcinoma cells T84 and CaCo-2 was evaluated in the following manner. Cell proliferation was measured by WST-1 dye conversion to Formazan assay using the proliferation kit from BioVision, CA. The procedure used was essentially as described in the manufacture's instructions. Briefly, cells were grown for 7 days until they formed semi-confluent monolayers. On day 7, cells were trypsinized and resuspended in 96-well plates at a concentration of approximately 40,000 cells/well and allowed to grow for 24 hours at 37° C.
Subsequently, fresh media containing increasing concentrations of Compound 1, as indicated in the FIG. 1, were added and assay plates were further incubated for an additional period of 24 hours. A solution of 5 μl of WST-1 dye per well was added and plates were read after 4 hours at 440 and 600 nm using an ELISA plate reader. The absorbance at 440 minus that at 600 nm is directly proportion to the number of proliferating cells. All samples were measured in triplicate and results were expressed as an average of three determinations.

Various Tumor Cell Lines = assay: NCI in vitro SRB tumor cell line assay, panel summary; format: cell-based
Description: (§1) An in vitro assay which tested the ability of N,N,-diethyl-8,8-dipropyl-2-azaspiro[4,5]decane-2-propanamine dimaleate (Compound 1) to inhibit the growth of known cancer cell lines was performed by the National Cancer Institute in accordance with standard procedures. See: Lin, Z. X., Hoult, J. R., and Raman, A. Sulphorhodamine B assay for measuring proliferation of a pigmented melanocyte cell line and its application to the evaluation of crude drugs used in the treatment of vitiligo. J Ethnopharmacol. 66: 141-150, 1999. Briefly, selected tumor cell lines were cultured in media containing five different concentrations of Compound 1. After 48 hours of continuous exposure, a sulforhodamine B (SRB) assay was used to estimate cell viability or growth via optical measurements.
(§2) From the measurements, the following values were determined: 1) the concentration of Compound 1 at which a tumor cell growth inhibition of 50% (relative to control) occurs (GI50), 2) the concentration of Compound 1 at which no growth occurs (total growth inhibition, TGI), and 3) the concentration of Compound 1 at which the […] (LC 50). […] FIG. 6 illustrates, graphically, tumor cell growth as a function of Compound 1 concentration of the scanned tumor cell lines.

RPMI-8226 = assay: NCI in vitro SRB assay, Leukemia; format: cell-based; settings: for CC50 / GI50: Homo sapiens
Description: as §1, §2

CCRF-CEM = assay: NCI in vitro SRB assay, Leukemia; format: cell-based; settings: for GI50 / CC50: Homo sapiens
Description: as §1, §2

[1] = RPMI-8226, Log10 conc -4.0 Moles/L
[2] = RPMI-8226, Log10 conc -5.0 Moles/L
[3] = RPMI-8226, Log10 conc -6.0 Moles/L
[4] = RPMI-8226, Log10 conc -7.0 Moles/L
[5] = RPMI-8226, Log10 conc -8.0 Moles/L

CCCC1(CCC)CCC2(CCN(CCCN(CC)CC)C2)CC1.O=C(O)/C=C\C(=O)O.O=C(O)/C=C\C(=O)O [Compound 1, N,N,-diethyl-8,8-dipropyl-2-azaspiro[4,5]decane-2-propanamine dimaleate]
IC50 (HUVEC): 530 nM | DNA ladder formation (apoptosis) (HUVEC cells): formation of DNA laddering in a dose-dependent manner | IC50 (CaCo-2 cells): 625 to 1250 nM | Log10 GI50, MG_MID (Various Tumor Cell Lines; all cell lines of Table 2): −5.93 | Log10 TGI, Delta (Various Tumor Cell Lines; all cell lines of Table 2): 1.18 | Log10 TGI, MG_MID (Various Tumor Cell Lines; all cell lines of Table 2): −5.45 | Log10 TGI, Range (Various Tumor Cell Lines; all cell lines of Table 2): 2.62 | CC50 (Various Tumor Cell Lines; read-out: Log10 LC50, MG_MID (converted)): 8710 nM | CC50 (RPMI-8226; RPMI-8226, read-out: LC50): > 100000 nM | CC50 (RPMI-8226; RPMI-8226, read-out: Log10 LC50 (converted)): > 100000 nM | GI50 (RPMI-8226; RPMI-8226, read-out: GI50): 283 nM | GI50 (RPMI-8226; RPMI-8226, read-out: Log10 GI50 (converted)): 282 nM | Log10 TGI (RPMI-8226; RPMI-8226): −4.53 | TGI (RPMI-8226; RPMI-8226): 29800 nM | Mean Optical Densities (RPMI-8226; [1]): 0.185 | Percent Growth (RPMI-8226; [1]): −3% | Mean Optical Densities (RPMI-8226; [2]): 0.218 | Percent Growth (RPMI-8226; [2]): 3% | Mean Optical Densities (RPMI-8226; [3]): 0.371 | Percent Growth (RPMI-8226; [3]): 21% | Mean Optical Densities (RPMI-8226; [4]): 0.843 | Percent Growth (RPMI-8226; [4]): 74% | Mean Optical Densities (RPMI-8226; [5]): 0.918 | Percent Growth (RPMI-8226; [5]): 83% | Log10 TGI (CCRF-CEM): >−4.00 | TGI (CCRF-CEM): >100000 nM | GI50 (CCRF-CEM; read-out: GI50): 1090 nM | CC50 (CCRF-CEM; read-out: LC50): > 100000 nM | GI50 (CCRF-CEM; read-out: Log10 GI50 (converted)): 1100 nM | CC50 (CCRF-CEM; read-out: Log10 LC50 (converted)): > 100000 nM | Mean Optical Densities (CCRF-CEM; Log10 conc -4.0 Moles/L): 0.115 | Percent Growth (CCRF-CEM; Log10 conc -4.0 Moles/L): 6% | Mean Optical Densities (CCRF-CEM; Log10 conc -5.0 Moles/L): 0.158 | Percent Growth (CCRF-CEM; Log10 conc -5.0 Moles/L): 13% | Mean Optical Densities (CCRF-CEM; Log10 conc -6.0 Moles/L): 0.409 | Percent Growth (CCRF-CEM; Log10 conc -6.0 Moles/L): 51% | Mean Optical Densities (CCRF-CEM; Log10 conc -7.0 Moles/L): 0.597 | Percent Growth (CCRF-CEM; Log10 conc -7.0 Moles/L): 81% | Mean Optical Densities (CCRF-CEM; Log10 conc -8.0 Moles/L): 0.611 | Percent Growth (CCRF-CEM; Log10 conc -8.0 Moles/L): 83%

Reference: patent US20050250801A1, “Method of treating cancer with azaspirane compositions” (priority 2003, published 2005)
